# Reference: ChEMBL document CHEMBL4138182, “Aminomethylation of heliomycin: Preparation and anticancer characterization of the first series of semi-synthetic derivatives” (Eur J Med Chem, 2018)
# Calls of active or inactive are those of the source. The rule behind the calls is not given here.
# Tests used:
# [1] = Selectivity index, ratio of IC50 for HMEC1 cells to IC50 for human HeLa cells; type: toxicity; conditions: HMEC1 cells and HeLa cells, read-out: Ratio IC50
# CCRF-CEM = assay: Antiproliferative activity against human CEM cells after 72 hrs by MTT assay; type: functional, cell-based
# L1210 = assay: Antiproliferative activity against mouse L1210 cells after 72 hrs by MTT assay; type: functional, cell-based; conditions: L1210, 72 h
# [2] = Selectivity index, ratio of IC50 for HMEC1 cells to IC50 for human K562 cells; type: toxicity; conditions: HMEC1 cells and K562 cells, read-out: Ratio IC50
# [3] = Selectivity index, ratio of IC50 for HMEC1 cells to IC50 for human CEM cells; type: toxicity; conditions: HMEC1 cells and CEM cells, read-out: Ratio IC50
# [4] = Selectivity index, ratio of IC50 for HMEC1 cells to IC50 for p53 deficient human HCT116 cells; type: toxicity; conditions: HMEC1 cells and p53 deficient HCT116 cells, read-out: Ratio IC50
# T-24 [5] = assay: Induction of apoptosis n human T24 cells assessed as caspase-3 cleavage at 0.5 to 1 uM after 18 hrs by Western blot method; type: functional, cell-based
# HCT-116 [6] = assay: Antiproliferative activity against p53 deficient human HCT116 cells after 72 hrs by MTT assay; type: functional, cell-based; conditions: HCT-116, 72 h
# T-24 [7] = assay: Induction of apoptosis n human T24 cells assessed as upregulation of Bak levels at 0.5 to 1 uM after 18 hrs by Western blot method; type: functional, cell-based
# T-24 [8] = assay: Induction of apoptosis n human T24 cells assessed as PARP cleavage at 0.5 to 1 uM after 18 hrs by Western blot method; type: functional, cell-based
# K562 = assay: Antiproliferative activity against human K562 cells after 72 hrs by MTT assay; type: functional, cell-based; conditions: K562, 72 h
# T-24 [9] = assay: Growth inhibition of human T24 cells after 72 hrs by cell impedance method; type: functional, cell-based; conditions: T-24, 72 h
# HCT-116 [10] = assay: Antiproliferative activity against human HCT116 cells after 72 hrs by MTT assay; type: functional, cell-based; conditions: HCT-116, 72 h
# [11] = Selectivity index, ratio of IC50 for HMEC1 cells to IC50 for human HCT116 cells; type: toxicity; conditions: HMEC1 cells and HCT116 cells, read-out: Ratio IC50
# [12] = Selectivity index, ratio of IC50 for HMEC1 cells to IC50 for human K562/4 cells; type: toxicity; conditions: HMEC1 cells and K562/4 cells, read-out: Ratio IC50
# T-24 [13] = assay: Induction of apoptosis n human T24 cells assessed as upregulation of p53 levels at 0.5 to 1 uM after 18 hrs by Western blot method; type: functional, cell-based
# HMEC-1 = assay: Antiproliferative activity against HMEC1 cells after 72 hrs by MTT assay; type: cell-based; conditions: Homo sapiens, HMEC-1, 72 h
# HeLa = assay: Antiproliferative activity against human HeLa cells after 72 hrs by MTT assay; type: functional, cell-based
# T-24 [14] = assay: Induction of apoptosis n human T24 cells at 1 uM after 24 hrs by annexin V-FITC/propidium iodide staining-based flow cytometric method; type: functional, cell-based
# T-24 [15] = assay: Induction of reactive oxygen species generation in human T24 cells at 1 uM after 30 mins by H2DCFDA dye-based flow cytometric method; type: functional, cell-based
# T-24 [16] = assay: Induction of apoptosis n human T24 cells assessed as downregulation of Bcl-2 levels at 0.5 to 1 uM after 18 hrs by Western blot method; type: functional, cell-based
# [17] = Antiproliferative activity against human K562/4 cells after 72 hrs by MTT assay; type: functional, cell-based; conditions: K562/4, 72 h
# [18] = Selectivity index, ratio of IC50 for HMEC1 cells to IC50 for mouse L1210 cells; type: toxicity; conditions: HMEC1 cells and L1210 cells, read-out: Ratio IC50
# [19] = biological target: T1, DNA topoisomerase 1 (Homo sapiens) (UniProt P11387); assay: Inhibition of human DNA topoisomerase 1 assessed as decrease in relaxation of pBR322 at <= 20 uM after 30 to 40 mins by agarose gel electrophoresis
# T1 sequence (whole entry): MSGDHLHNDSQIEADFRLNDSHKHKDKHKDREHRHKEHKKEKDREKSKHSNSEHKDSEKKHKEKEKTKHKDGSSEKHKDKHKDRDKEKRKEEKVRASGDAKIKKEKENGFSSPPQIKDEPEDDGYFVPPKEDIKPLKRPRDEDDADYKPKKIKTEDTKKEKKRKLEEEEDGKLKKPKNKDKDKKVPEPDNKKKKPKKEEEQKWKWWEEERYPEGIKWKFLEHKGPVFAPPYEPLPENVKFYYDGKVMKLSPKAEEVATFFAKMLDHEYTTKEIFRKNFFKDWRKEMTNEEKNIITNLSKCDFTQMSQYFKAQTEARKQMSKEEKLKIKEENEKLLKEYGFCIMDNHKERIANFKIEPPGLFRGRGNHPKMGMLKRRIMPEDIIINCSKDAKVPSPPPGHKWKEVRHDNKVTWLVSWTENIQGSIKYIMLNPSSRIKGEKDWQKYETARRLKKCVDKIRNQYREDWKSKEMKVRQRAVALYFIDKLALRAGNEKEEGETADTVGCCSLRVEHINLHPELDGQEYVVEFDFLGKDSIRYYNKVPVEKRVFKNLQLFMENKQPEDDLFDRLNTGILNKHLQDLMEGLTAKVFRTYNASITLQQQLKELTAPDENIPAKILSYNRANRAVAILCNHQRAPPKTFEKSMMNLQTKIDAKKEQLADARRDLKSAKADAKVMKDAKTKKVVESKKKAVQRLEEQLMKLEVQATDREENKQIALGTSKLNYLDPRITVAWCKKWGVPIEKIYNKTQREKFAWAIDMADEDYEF
# Calf thymus DNA [20] = assay: Binding affinity to calf thymus double stranded DNA by Benesi-Hildebrand plot analysis; type: nucleic-acid assay, Bos taurus; conditions: for Kb: Bos taurus
# [21] = biological target: T1, DNA topoisomerase 1 (Homo sapiens); assay: Inhibition of human DNA topoisomerase 1 assessed as decrease in relaxation of pBR322 at 5 to 20 uM after 30 to 40 mins by agarose gel electrophoresis
# Calf thymus DNA [22] = assay: Binding affinity to calf thymus double stranded DNA at 10 uM by fluorescence spectrophotometer; type: nucleic-acid assay; conditions: Bos taurus
# Calf thymus DNA [23] = assay: Binding affinity to calf thymus DNA by visible spectroscopic method; type: nucleic-acid assay; conditions: Bos taurus
SMILES,IC50 (CCRF-CEM) [nM],IC50 (L1210) [nM],IC50 (HCT-116 [6]) [nM],IC50 (K562) [nM],IC50 (HCT-116 [10]) [nM],IC50 (HeLa) [nM],IC50 [17] [nM],also measured
Cc1cc(O)c2c3c4c(cc(O)c13)C(C)(C)C(=O)c1c(O)c(CNC(C)(C)C)c(O)c(c1-4)C2=O,300,8800,300,500,600,700,1600,selectivity ratio [1]: 2 to 50; selectivity ratio [2]: 2 to 50; selectivity ratio [3]: 2 to 50; selectivity ratio [4]: 2 to 50; Activity (T-24 [5]): Active; Activity (T-24 [7]): Active; Activity (T-24 [8]): Active; IC50 (T-24 [9]): 1100 nM; selectivity ratio [11]: 2 to 50; selectivity ratio [12]: 2 to 50; Activity (T-24 [13]): Active; IC50 (HMEC-1): 7800 nM; Activity (T-24 [14]): Active; Activity (T-24 [15]): Active; Activity (T-24 [16]): Active
Cc1cc(O)c2c3c4c(cc(O)c13)C(C)(C)C(=O)c1c(O)c(CN3CCCCC3)c(O)c(c1-4)C2=O,900,3400,100,300,300,800,800,–
Cc1cc(O)c2c3c4c(cc(O)c13)C(C)(C)C(=O)c1c(O)c(CN3CCNCC3)c(O)c(c1-4)C2=O,5600,4200,1800,2500,4800,5400,5800,–
CCOC(=O)[C@@H]1CCCN1Cc1c(O)c2c3c(c1O)C(=O)C(C)(C)c1cc(O)c4c(C)cc(O)c(c4c1-3)C2=O,1200,3500,1000,2200,700,1300,1500,selectivity ratio [1]: 2 to 50; selectivity ratio [18]: 2 to 50; selectivity ratio [2]: 2 to 50; selectivity ratio [3]: 2 to 50; selectivity ratio [4]: 2 to 50; Topoisomerase 1 inhibition (active/inactive) [19]: Active; selectivity ratio [11]: 2 to 50; selectivity ratio [12]: 2 to 50; IC50 (HMEC-1): 5900 nM
Cc1cc(O)c2c3c4c(cc(O)c13)C(C)(C)C(=O)c1c(O)c(CN3CCN(C)CC3)c(O)c(c1-4)C2=O,2100,2300,500,1200,3300,3600,4500,–
Cc1cc(O)c2c3c4c(cc(O)c13)C(C)(C)C(=O)c1c(O)c(CN3CCC(N)CC3)c(O)c(c1-4)C2=O,2300,800,700,600,1200,2600,4100,Activity (T-24 [5]): Active; Activity (T-24 [7]): Active; Kd (Calf thymus DNA [20]): 8100 nM; Kb (Calf thymus DNA [20]): 1.2 ×10⁵ /M; inhibition [21]: Active; Activity (T-24 [8]): Active; IC50 (T-24 [9]): 4400 nM; Topoisomerase 1 inhibition (active/inactive) [19]: Active; Activity (T-24 [13]): Active; Activity (Calf thymus DNA [22]): Active; Activity (T-24 [14]): Active; Activity (T-24 [15]): Active; Activity (T-24 [16]): Active
Cc1cc(O)c2c3c4c(cc(O)c13)C(C)(C)C(=O)c1c(O)c(CN3CCOCC3)c(O)c(c1-4)C2=O,24200,62000,200,8600,300,11100,300,–
Cc1cc(O)c2c3c4c(cc(O)c13)C(C)(C)C(=O)c1c(O)c(CN3CCN(CCO)CC3)c(O)c(c1-4)C2=O,5200,3000,1300,2700,3700,4800,4200,–
Cc1cc(O)c2c3c4c(cc(O)c13)C(C)(C)C(=O)c1c(O)c(CNCCN(C)C)c(O)c(c1-4)C2=O,1800,1900,700,2200,200,3900,2200,–
Cc1cc(O)c2c3c4c(cc(O)c13)C(C)(C)C(=O)c1c(O)c(CN(C)C)c(O)c(c1-4)C2=O,17100,17000,600,700,1100,28300,1000,selectivity ratio [18]: 2 to 50; selectivity ratio [2]: 2 to 50; selectivity ratio [4]: 2 to 50; Activity (T-24 [5]): Active; Activity (T-24 [7]): Active; Kd (Calf thymus DNA [20]): 34000 nM; Kb (Calf thymus DNA [20]): 3 ×10⁴ /M; Activity (T-24 [8]): Active; IC50 (T-24 [9]): 4700 nM; Topoisomerase 1 inhibition (active/inactive) [19]: Active; selectivity ratio [11]: 2 to 50; selectivity ratio [12]: 2 to 50; Activity (T-24 [13]): Active; IC50 (HMEC-1): 32600 nM; Activity (Calf thymus DNA [22]): Active; Activity (T-24 [14]): Active; Activity (T-24 [15]): Active; Activity (T-24 [16]): Active
CCN(CC)Cc1c(O)c2c3c(c1O)C(=O)C(C)(C)c1cc(O)c4c(C)cc(O)c(c4c1-3)C2=O,198000,> 250000,500,400,1100,> 250000,300,–
Cc1cc(O)c2c3c4c(cc(O)c13)C(C)(C)C(=O)c1c(O)c(CN3CCCC(O)C3)c(O)c(c1-4)C2=O (configuration not stated),2100,3400,900,700,1000,3600,900,–
Cc1cc(O)c2c3c4c(cc(O)c13)C(C)(C)C(=O)c1c(O)c(CN3CCC(N)C3)c(O)c(c1-4)C2=O (configuration not stated),3400,2900,1100,1500,3600,2600,4500,–
Cc1cc(O)c2c3c4c(cc(O)c13)C(C)(C)C(=O)c1c(O)c(CN(CC(=O)O)CC(=O)O)c(O)c(c1-4)C2=O,9700,31000,600,5500,200,6500,3100,selectivity ratio [1]: 2 to 50; selectivity ratio [18]: 2 to 50; selectivity ratio [2]: 2 to 50; selectivity ratio [3]: 2 to 50; selectivity ratio [4]: 2 to 50; Topoisomerase 1 inhibition (active/inactive) [19]: Active; selectivity ratio [11]: 2 to 50; selectivity ratio [12]: 2 to 50; IC50 (HMEC-1): 34300 nM
COc1cccc2c1C(=O)c1c(O)c3c(c(O)c1C2=O)C[C@@](O)(C(=O)CO)C[C@@H]3O[C@H]1C[C@H](N)[C@H](O)[C@H](C)O1,–,–,–,–,–,–,–,Kb (Calf thymus DNA [23]): 2 ×10⁶ /M
CCN1CCN(Cc2c(O)c3c4c(c2O)C(=O)C(C)(C)c2cc(O)c5c(C)cc(O)c(c5c2-4)C3=O)CC1,800,800,1700,900,1600,800,3400,–
Cc1cc(O)c2c3c4c(cc(O)c13)C(C)(C)C(=O)c1c(O)c(CN3CCCC3)c(O)c(c1-4)C2=O,7200,14100,100,1200,200,14200,3400,–
